# pIC50: −log10 of the molar value.
# Target: human SGLT2 (Homo sapiens (Human), UniProt P31639)
# Assay: Inhibitory effects on human SGLT2 activities (14C-AMG uptake, sodium-dependent glucose transport assay)
# Assay type: cell-based
# Conditions: CHO cells stably expressing hSGLT2, 37° C., 2 h, single determinations
# How it was run: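 CHO cells stably expressing hSGLT2 were preincubated 10 min at 37 °C in choline (Na+-free) buffer, then exposed 2 h at 37 °C to compound in Na+ uptake buffer with 8 μM 14C-AMG and 1 mM unlabeled AMG. Radioactivity was scintillation counted; IC50 came from nonlinear regression.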
# Chain of human SGLT2 (P31639 whole entry): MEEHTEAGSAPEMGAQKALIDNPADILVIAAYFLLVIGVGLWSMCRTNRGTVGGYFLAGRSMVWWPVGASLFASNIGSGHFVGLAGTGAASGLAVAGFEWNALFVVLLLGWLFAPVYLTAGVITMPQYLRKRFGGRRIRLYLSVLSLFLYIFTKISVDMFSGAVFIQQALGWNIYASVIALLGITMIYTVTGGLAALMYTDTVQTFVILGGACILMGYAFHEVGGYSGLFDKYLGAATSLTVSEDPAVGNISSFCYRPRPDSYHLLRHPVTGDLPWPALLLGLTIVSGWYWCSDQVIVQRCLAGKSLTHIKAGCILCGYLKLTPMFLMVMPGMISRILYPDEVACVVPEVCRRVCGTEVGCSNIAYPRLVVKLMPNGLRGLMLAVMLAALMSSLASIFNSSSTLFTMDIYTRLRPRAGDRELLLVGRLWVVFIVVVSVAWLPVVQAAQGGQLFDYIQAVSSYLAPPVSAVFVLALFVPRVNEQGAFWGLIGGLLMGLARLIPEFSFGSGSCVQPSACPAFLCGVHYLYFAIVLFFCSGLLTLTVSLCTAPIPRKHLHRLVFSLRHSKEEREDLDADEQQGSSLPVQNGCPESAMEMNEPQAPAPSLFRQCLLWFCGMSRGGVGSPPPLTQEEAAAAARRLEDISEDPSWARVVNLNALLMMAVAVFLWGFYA
row,pIC50,SMILES
1,9.20,"CCc1ccc(Cc2cc([C@@H]3O[C@H](CO)[C@@H](O)[C@H](O)[C@H]3O)c3c(c2Cl)CCC3)cc1 [Example E238, (2S,3R,4R,5S,6R)-2-(7-Chloro-6-(4-ethylbenzyl)-2,3-dihydro-1H-inden-4-yl)-6-(hydroxymethyl)tetrahydro-2H-pyran-3,4,5-triol]"
2,9.24,"C=C(C)c1ccc(Cc2cc([C@@H]3O[C@H](CO)[C@@H](O)[C@H](O)[C@H]3O)c3c(c2Cl)OCC3)cc1 [Example E180, (2S,3R,4R,5S,6R)-2-(7-Chloro-6-(4-(prop-1-en-2-yl)benzyl)-2,3-dihydrobenzofuran-4-yl)-6-(hydroxymethyl)tetrahydro-2H-pyran-3,4,5-triol]"
3,9.06,"CCOc1ccc(Cc2cc([C@@H]3O[C@H](CO)[C@@H](O)[C@H](O)[C@H]3O)c3c(c2Cl)OCC3C)cc1 (stereo partly drawn) [Example E224, (2S,3R,4R,5S,6R)-2-(7-Chloro-6-(4-ethoxybenzyl)-3-methyl-2,3-dihydrobenzofuran-4-yl)-6-(hydroxymethyl)-tetrahydro-2H-pyran-3,4,5-triol]"
4,8.82,"CCOc1ccc(Cc2cc([C@@H]3O[C@H](CO)[C@@H](O)[C@H](O)[C@H]3O)c3c(c2Cl)OCC3)cc1 [Example E024, (2S,3R,4R,5S,6R)-2-(7-Chloro-6-(4-ethoxybenzyl)-2,3-dihydrobenzofuran-4-yl)-6-(hydroxymethyl)tetrahydro-2H-pyran-3,4,5-triol]"
5,8.43,"CCOc1ccc(Cc2cc([C@@H]3O[C@H](CO)[C@@H](O)[C@H](O)[C@H]3O)cc(-c3cccs3)c2C)cc1 [Example E090, (2S,3R,4R,5S,6R)-2-(3-(4-Ethoxybenzyl)-4-methyl-5-(thiophen-2-yl)phenyl)-6-(hydroxymethyl)-tetrahydro-2H-pyran-3,4,5-triol]"
6,9.21,"OC[C@H]1O[C@@H](c2cc(Cc3ccc4c(c3)OCCO4)c(Cl)c3c2CCC3)[C@H](O)[C@@H](O)[C@@H]1O [Example E106, (2S,3R,4R,5S,6R)-2-(7-Chloro-6-((2,3-dihydrobenzo[b][1,4]dioxin-6-yl)methyl)-2,3-dihydro-1H-inden-4-yl)-6-(hydroxymethyl)tetrahydro-2H-pyran-3,4,5-triol]"
7,8.02,"Cc1ccc([C@@H]2O[C@H](CO)[C@@H](O)[C@H](O)[C@H]2O)cc1Cc1ccc2c(c1)OCCCO2 [Example E030, (2S,3R,4R,5S,6R)-2-(3-((3,4-Dihydro-2H-benzo[b][1,4]dioxepin-7-yl)methyl)-4-methylphenyl)-6-(hydroxymethyl)tetrahydro-2H-pyran-3,4,5-triol]"
8,9.32,"CN(C)c1ccc(Cc2cc([C@@H]3O[C@H](CO)[C@@H](O)[C@H](O)[C@H]3O)c3c(c2Cl)CCC3)cc1 [Example E116, (2S,3R,4R,5S,6R)-2-(7-Chloro-6-(4-(dimethylamino)benzyl)-2,3-dihydro-1H-inden-4-yl)-6-(hydroxymethyl)tetrahydro-2H-pyran-3,4,5-triol]"
9,8.75,"COc1ccc(Cc2cc([C@@H]3O[C@H](CO)[C@@H](O)[C@H](O)[C@H]3O)c3c(c2Cl)OC(C)C3)cc1 (stereo partly drawn) [Example E130, (2S,3R,4R,5S,6R)-2-(7-Chloro-6-(4-methoxybenzyl)-2-methyl-2,3-dihydrobenzofuran-4-yl)-6-(hydroxymethyl)tetrahydro-2H-pyran-3,4,5-triol]"
10,9.05,"CCc1ccc(Cc2cc([C@@H]3O[C@H](CO)[C@@H](O)[C@H](O)[C@H]3O)c3c(c2Cl)CCO3)cc1 [Example E010, (2S,3R,4R,5S,6R)-2-(4-Chloro-5-(4-ethylbenzyl)-2,3-dihydrobenzofuran-7-yl)-6-(hydroxymethyl)tetrahydro-2H-pyran-3,4,5-triol]"
11,9.05,"CCc1ccc(Cc2cc([C@@H]3O[C@H](CO)[C@@H](O)[C@H](O)[C@H]3O)c3c(c2Cl)C(C)CO3)cc1 (stereo partly drawn) [Example E215, (2S,3R,4R,5S,6R)-2-(4-Chloro-5-(4-ethylbenzyl)-3-methyl-2,3-dihydrobenzofuran-7-yl)-6-(hydroxymethyl)tetrahydro-2H-pyran-3,4,5-triol]"
12,6.24,"CCCc1ccc(Cc2cc([C@@H]3O[C@H](CO)[C@@H](O)[C@H](O)[C@H]3O)c3occc3c2Cl)cc1 [Example E174, (2S,3R,4R,5S,6R)-2-(4-Chloro-5-(4-propylbenzyl)benzofuran-7-yl)-6-(hydroxymethyl)tetrahydro-2H-pyran-3,4,5-triol]"
13,8.60,"OC[C@H]1O[C@@H](c2cc(Cc3ccc4c(c3)NCCC4)c(Cl)c3c2CCO3)[C@H](O)[C@@H](O)[C@@H]1O [Example E230, (2S,3R,4R,5S,6R)-2-(7-Chloro-6-((1,2,3,4-tetrahydroquinolin-7-yl)methyl)-2,3-dihydrobenzofuran-4-yl)-6-(hydroxymethyl)-tetrahydro-2H-pyran-3,4,5-triol]"
14,9.10,OC[C@H]1O[C@@H](c2ccc(Cl)c(Cc3ccc4c(c3)OC=CO4)c2)[C@H](O)[C@@H](O)[C@@H]1O [Example E069]
15,8.99,"COc1ccc(Cc2cc([C@@H]3O[C@H](CO)[C@@H](O)[C@H](O)[C@H]3O)c3c(c2Cl)CC(C)O3)cc1 (stereo partly drawn) [Example E131, (2S,3R,4R,5S,6R)-2-(4-Chloro-5-(4-methoxybenzyl)-2-methyl-2,3-dihydrobenzofuran-7-yl)-6-(hydroxymethyl)tetrahydro-2H-pyran-3,4,5-triol]"
16,8.02,CCc1ccc(Cc2cc([C@@H]3O[C@H](CO)[C@@H](O)[C@H](O)[C@H]3O)cc(-c3ccccc3)c2C)cc1 [Example E076]
17,8.38,"CCOc1ccc(Cc2cc([C@@H]3O[C@H](CO)[C@@H](O)[C@H](O)[C@H]3O)c3c(c2Cl)C(C)(C)CO3)cc1 [Example E223, (2S,3R,4R,5S,6R)-2-(4-Chloro-5-(4-ethoxybenzyl)-3,3-dimethyl-2,3-dihydrobenzofuran-7-yl)-6-(hydroxymethyl)-tetrahydro-2H-pyran-3,4,5-triol]"
18,8.64,"Cn1cc2cc(Cc3cc([C@@H]4O[C@H](CO)[C@@H](O)[C@H](O)[C@H]4O)ccc3Cl)ccc2n1 [Example E036, (2S,3R,4R,5S,6R)-2-(4-Chloro-3-((2-methyl-2H-indazol-5-yl)methyl)phenyl)-6-(hydroxymethyl)tetrahydro-2H-pyran-3,4,5-triol]"
19,7.98,CCOc1ccc(Cc2cc([C@@H]3O[C@H](CO)[C@@H](O)[C@H](O)[C@H]3O)c3c(c2Cl)OCC3=O)cc1 [Example E226]
20,8.82,"COc1ccc(Cc2cc([C@@H]3O[C@H](CO)[C@@H](O)[C@H](O)[C@H]3O)c3c(c2Cl)OCC3)cc1 [Example E019, (2S,3R,4R,5S,6R)-2-(7-Chloro-6-(4-methoxybenzyl)-2,3-dihydrobenzofuran-4-yl)-6-(hydroxymethyl)tetrahydro-2H-pyran-3,4,5-triol]"
21,7.25,"CCc1ccc(C2OCc3ccc([C@@H]4O[C@H](CO)[C@@H](O)[C@H](O)[C@H]4O)cc32)cc1 (stereo partly drawn) [Example E099, (2S,3R,4R,5S,6R)-2-(3-(4-Ethylphenyl)-1,3-dihydroisobenzofuran-5-yl)-6-(hydroxymethyl)-tetrahydro-2H-pyran-3,4,5-triol]"
22,9.00,"C=Cc1ccc(Cc2cc([C@@H]3O[C@H](CO)[C@@H](O)[C@H](O)[C@H]3O)c3c(c2Cl)OC(C)C3)cc1 (stereo partly drawn) [Example E137, (2S,3R,4R,5S,6R)-2-(7-Chloro-2-methyl-6-(4-vinylbenzyl)-2,3-dihydrobenzofuran-4-yl)-6-(hydroxymethyl)tetrahydro-2H-pyran-3,4,5-triol]"
23,7.11,"O=S1(=O)CCOc2ccc(Cc3cc([C@@H]4O[C@H](CO)[C@@H](O)[C@H](O)[C@H]4O)ccc3Cl)cc21 [Example E073, (2S,3R,4R,5S,6R)-2-(4-Chloro-3-((1,1-dioxo-2,3-dihydrobenzo[b][1,4]oxathiin-6-yl)methyl)phenyl)-6-(hydroxymethyl)-tetrahydro-2H-pyran-3,4,5-triol]"
24,7.31,"COc1ccc(Cc2cc([C@@H]3O[C@H](CO)[C@@H](O)[C@H](O)[C@H]3O)c3oc(C)c(OC)c3c2Cl)cc1 [Example E201, (2S,3R,4R,5S,6R)-2-(4-Chloro-3-methoxy-5-(4-methoxybenzyl)-2-methylbenzofuran-7-yl)-6-(hydroxymethyl)tetrahydro-2H-pyran-3,4,5-triol]"
25,8.99,"CCOc1ccc(Cc2cc([C@@H]3O[C@H](CO)[C@@H](O)[C@H](O)[C@H]3O)c3c(c2Cl)CC(C)S3)cc1 (stereo partly drawn) [Example E143, (2S,3R,4R,5S,6R)-2-(4-Chloro-5-(4-ethoxybenzyl)-2-methyl-2,3-dihydrobenzo[b]thiophen-7-yl)-6-(hydroxymethyl)tetrahydro-2H-pyran-3,4,5-triol]"
26,8.69,"COc1ccc(Cc2cc([C@@H]3O[C@H](CO)[C@@H](O)[C@H](O)[C@H]3O)c3c(c2F)CCC3)cc1 [Example E006, (2S,3R,4R,5S,6R)-2-(7-Fluoro-6-(4-methoxybenzyl)-2,3-dihydro-1H-inden-4-yl)-6-(hydroxymethyl)tetrahydro-2H-pyran-3,4,5-triol]"
27,8.13,"CCOc1ccc(Cc2cc([C@@H]3O[C@H](S(C)(=O)=O)[C@@H](O)[C@H](O)[C@H]3O)c(OC)cc2Cl)cc1 [Example E112, (2S,3R,4R,5S,6R)-2-(4-Chloro-5-(4-ethoxybenzyl)-2-methoxyphenyl)-6-(methylsulfonyl)tetrahydro-2H-pyran-3,4,5-triol]"
28,8.73,"OCCCOc1ccc(Cc2cc([C@@H]3O[C@H](CO)[C@@H](O)[C@H](O)[C@H]3O)c3c(c2Cl)OCC3)cc1 [Example E193, (2S,3R,4R,5S,6R)-2-(7-Chloro-6-(4-(3-hydroxypropoxy)benzyl)-2,3-dihydrobenzofuran-4-yl)-6-(hydroxymethyl)tetrahydro-2H-pyran-3,4,5-triol]"
29,9.15,"CCc1ccc(Cc2cc([C@@H]3O[C@H](CO)[C@@H](O)[C@H](O)[C@H]3O)c3c(c2Cl)CC(C)O3)cc1 (stereo partly drawn) [Example E132, (2S,3R,4R,5S,6R)-2-(4-Chloro-5-(4-ethylbenzyl)-2-methyl-2,3-dihydrobenzofuran-7-yl)-6-(hydroxymethyl)tetrahydro-2H-pyran-3,4,5-triol]"
